SMILES strings stand for the structures.

The text below walks through data of patent US20240398784A1, “C-LINKED ISOQUINOLINE AMIDES AS LRRK2 INHIBITORS, PHARMACEUTICAL COMPOSITIONS, AND USES THEREOF” (Merck Sharp & Dohme LLC, priority 2021, published 2024).

The target of the assay is LRRK2 G2019S (Homo sapiens, UniProt Q5S007, G2019S). The assay is described as follows: LRRK2 G2019S Km ATP LanthaScreen assay. The class given is biochemical. The note with it: read-out: LRRK2 pIC50 (converted).
Chain of LRRK2 G2019S (Q5S007 whole entry G2019S): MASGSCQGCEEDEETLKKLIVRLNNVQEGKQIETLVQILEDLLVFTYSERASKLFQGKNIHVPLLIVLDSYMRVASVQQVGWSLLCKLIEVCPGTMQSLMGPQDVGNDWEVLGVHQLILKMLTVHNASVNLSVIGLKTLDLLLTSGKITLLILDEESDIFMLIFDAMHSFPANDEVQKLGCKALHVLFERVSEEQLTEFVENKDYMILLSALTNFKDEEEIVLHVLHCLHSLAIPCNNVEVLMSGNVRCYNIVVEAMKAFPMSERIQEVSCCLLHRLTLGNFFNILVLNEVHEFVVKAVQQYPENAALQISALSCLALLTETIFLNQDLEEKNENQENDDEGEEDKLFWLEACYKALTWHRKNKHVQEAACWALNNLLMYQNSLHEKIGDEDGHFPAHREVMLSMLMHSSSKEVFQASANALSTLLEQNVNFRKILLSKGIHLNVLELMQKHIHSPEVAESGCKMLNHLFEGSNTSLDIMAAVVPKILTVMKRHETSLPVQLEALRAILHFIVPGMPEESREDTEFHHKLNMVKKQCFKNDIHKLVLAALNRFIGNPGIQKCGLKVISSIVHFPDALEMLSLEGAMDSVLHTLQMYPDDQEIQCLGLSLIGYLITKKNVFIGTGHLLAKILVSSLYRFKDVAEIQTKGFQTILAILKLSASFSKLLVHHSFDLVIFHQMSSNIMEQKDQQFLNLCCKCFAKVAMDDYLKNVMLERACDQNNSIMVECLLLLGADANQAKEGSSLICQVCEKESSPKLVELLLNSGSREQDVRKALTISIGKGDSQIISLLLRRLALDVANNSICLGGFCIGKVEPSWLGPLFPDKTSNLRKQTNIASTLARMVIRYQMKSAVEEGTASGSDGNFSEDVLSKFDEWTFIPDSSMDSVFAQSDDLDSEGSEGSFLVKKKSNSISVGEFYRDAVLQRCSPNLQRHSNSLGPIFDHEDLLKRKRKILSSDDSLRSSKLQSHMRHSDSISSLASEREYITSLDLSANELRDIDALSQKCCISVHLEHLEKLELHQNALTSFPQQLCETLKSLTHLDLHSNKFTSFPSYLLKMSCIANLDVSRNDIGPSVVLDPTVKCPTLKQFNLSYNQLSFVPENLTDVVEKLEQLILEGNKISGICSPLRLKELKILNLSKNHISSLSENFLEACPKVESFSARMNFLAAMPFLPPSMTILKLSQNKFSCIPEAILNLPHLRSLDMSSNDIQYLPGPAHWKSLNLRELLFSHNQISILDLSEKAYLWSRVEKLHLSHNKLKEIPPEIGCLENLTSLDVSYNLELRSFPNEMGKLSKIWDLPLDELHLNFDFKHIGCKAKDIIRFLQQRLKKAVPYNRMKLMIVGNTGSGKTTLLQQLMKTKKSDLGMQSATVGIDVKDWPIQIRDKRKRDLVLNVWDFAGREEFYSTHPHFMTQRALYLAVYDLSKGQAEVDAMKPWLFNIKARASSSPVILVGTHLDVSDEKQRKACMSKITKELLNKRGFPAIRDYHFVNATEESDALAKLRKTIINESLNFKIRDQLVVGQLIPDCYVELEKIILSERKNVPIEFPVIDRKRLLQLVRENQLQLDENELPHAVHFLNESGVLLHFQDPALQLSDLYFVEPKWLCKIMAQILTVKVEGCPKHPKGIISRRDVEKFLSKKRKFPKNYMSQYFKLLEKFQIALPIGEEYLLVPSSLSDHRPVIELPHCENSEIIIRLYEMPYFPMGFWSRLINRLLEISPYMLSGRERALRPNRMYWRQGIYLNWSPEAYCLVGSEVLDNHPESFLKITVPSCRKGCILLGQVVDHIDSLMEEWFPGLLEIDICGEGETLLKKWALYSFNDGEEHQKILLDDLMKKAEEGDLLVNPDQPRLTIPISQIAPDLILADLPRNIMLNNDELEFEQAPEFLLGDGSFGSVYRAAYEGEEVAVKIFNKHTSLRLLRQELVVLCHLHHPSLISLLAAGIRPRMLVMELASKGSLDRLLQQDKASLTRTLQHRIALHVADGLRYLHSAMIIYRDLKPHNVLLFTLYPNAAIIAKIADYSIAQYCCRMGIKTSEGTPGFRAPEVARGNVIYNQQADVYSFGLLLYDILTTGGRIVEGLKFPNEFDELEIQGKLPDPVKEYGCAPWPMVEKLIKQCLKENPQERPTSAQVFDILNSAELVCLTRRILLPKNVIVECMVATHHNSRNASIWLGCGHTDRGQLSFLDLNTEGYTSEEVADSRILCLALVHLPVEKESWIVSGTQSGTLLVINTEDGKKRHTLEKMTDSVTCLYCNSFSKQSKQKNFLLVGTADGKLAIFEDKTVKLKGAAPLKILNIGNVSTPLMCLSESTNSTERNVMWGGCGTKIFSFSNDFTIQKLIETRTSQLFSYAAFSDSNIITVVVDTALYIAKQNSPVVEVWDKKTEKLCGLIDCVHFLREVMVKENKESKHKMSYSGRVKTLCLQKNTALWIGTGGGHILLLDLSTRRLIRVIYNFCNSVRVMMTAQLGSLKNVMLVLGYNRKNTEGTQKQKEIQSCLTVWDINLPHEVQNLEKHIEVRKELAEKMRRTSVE
As to `CC1(N2CCC(c3cc4cc(NC(=O)C5C6CCOCC65)ncc4cc3Cl)CC2)COCC1O` (single isomer, unassigned) [Ex-4.34, N-(7-chloro-6-(1-(4-hydroxy-3-methyltetrahydrofuran-3-yl)piperidin-4-yl)isoquinolin-3-yl)-3-oxabicyclo[4.1.0]heptane-7-carboxamide], the IC50 is 1.38 nM.
Then `CC1(N2CCC(c3cc4cc(NC(=O)C5CC5c5cncnc5)ncc4cc3Cl)CC2)COCC1O` (single isomer, unassigned) [Ex-4.35, N-(7-chloro-6-(1-(4-hydroxy-3-methyltetrahydrofuran-3-yl)piperidin-4-yl)isoquinolin-3-yl)-2-(pyrimidin-5-yl)cyclopropane-1-carboxamide], with 0.692 nM; and `CC1(N2CCC(c3cc4cc(NC(=O)C5CC5c5cncnc5)ncc4cc3Cl)CC2)COCC1O` (single isomer, unassigned) [Ex-4.36, N-(7-chloro-6-(1-(4-hydroxy-3-methyltetrahydrofuran-3-yl)piperidin-4-yl)isoquinolin-3-yl)-2-(pyrimidin-5-yl)cyclopropane-1-carboxamide], with 0.562 nM.
Then `Cn1ncc(C2CC2C(=O)Nc2cc3cc(C4CCN(C5(C)COCC5O)CC4)c(Cl)cc3cn2)c1C(F)(F)F` (single isomer, unassigned) [Ex-4.37, N-(7-chloro-6-(1-(4-hydroxy-3-methyltetrahydrofuran-3-yl)piperidin-4-yl)isoquinolin-3-yl)-2-(1-methyl-5-(trifluoromethyl)-1H-pyrazol-4-yl)cyclopropane-1-carboxamide], with 0.0813 nM.
Then `CC1(N2CCC(c3cc4cc(NC(=O)C5CC5c5cc(F)ccn5)ncc4cc3Cl)CC2)COCC1O` (single isomer, unassigned) [Ex-4.39, N-(7-chloro-6-(1-(4-hydroxy-3-methyltetrahydrofuran-3-yl)piperidin-4-yl)isoquinolin-3-yl)-2-(4-fluoropyridin-2-yl)cyclopropane-1-carboxamide], with 135 nM; and `CC1(N2CCC(c3cc4cc(NC(=O)C5CC5c5cc(F)ccn5)ncc4cc3Cl)CC2)COCC1O` (single isomer, unassigned) [Ex-4.40, N-(7-chloro-6-(1-(4-hydroxy-3-methyltetrahydrofuran-3-yl)piperidin-4-yl)isoquinolin-3-yl)-2-(4-fluoropyridin-2-yl)cyclopropane-1-carboxamide], with 257 nM; and `CC1(N2CCC(c3cc4cc(NC(=O)C5CC5c5cccnc5)ncc4cc3Cl)CC2)COCC1O` (single isomer, unassigned) [Ex-4.41, N-(7-chloro-6-(1-(4-hydroxy-3-methyltetrahydrofuran-3-yl)piperidin-4-yl)isoquinolin-3-yl)-2-(pyridin-3-yl)cyclopropane-1-carboxamide], with 45.7 nM.
Take `CC1(N2CCC(c3cc4cc(NC(=O)C5CC5c5cccnc5)ncc4cc3Cl)CC2)COCC1O` (single isomer, unassigned) [Ex-4.42, N-(7-chloro-6-(1-(4-hydroxy-3-methyltetrahydrofuran-3-yl)piperidin-4-yl)isoquinolin-3-yl)-2-(pyridin-3-yl)cyclopropane-1-carboxamide]: the IC50 was 200 nM.
Next, `CC1(N2CCC(c3cc4cc(NC(=O)C5CC5C(F)F)ncc4cc3Cl)CC2)COCC1O` (single isomer, unassigned) [Ex-4.43, N-(7-chloro-6-(1-(4-hydroxy-3-methyltetrahydrofuran-3-yl)piperidin-4-yl)isoquinolin-3-yl)-2-(difluoromethyl)cyclopropane-1-carboxamide]: 1.48 nM; `CC1(N2CCC(c3cc4cc(NC(=O)C5CC5C(F)F)ncc4cc3Cl)CC2)COCC1O` (single isomer, unassigned) [Ex-4.44, N-(7-chloro-6-(1-(4-hydroxy-3-methyltetrahydrofuran-3-yl)piperidin-4-yl)isoquinolin-3-yl)-2-(difluoromethyl)cyclopropane-1-carboxamide]: 0.562 nM.
Next, `CC1(C)C(C(=O)Nc2cc3cc(C4CCN(C5(C)COCC5O)CC4)c(Cl)cc3cn2)C1c1ccccn1` (single isomer, unassigned) [Ex-4.45, N-(7-chloro-6-(1-(4-hydroxy-3-methyltetrahydrofuran-3-yl)piperidin-4-yl)isoquinolin-3-yl)-2,2-dimethyl-3-(pyridin-2-yl)cyclopropane-1-carboxamide]: 7.08 nM.
As to `CC1(C)C(C(=O)Nc2cc3cc(C4CCN(C5(C)COCC5O)CC4)c(Cl)cc3cn2)C1c1ccccn1` (single isomer, unassigned) [Ex-4.46, N-(7-chloro-6-(1-(4-hydroxy-3-methyltetrahydrofuran-3-yl)piperidin-4-yl)isoquinolin-3-yl)-2,2-dimethyl-3-(pyridin-2-yl)cyclopropane-1-carboxamide], the IC50 was 3.55 nM.
Then `CC(C)(F)C1CC1C(=O)Nc1cc2cc(C3CCN(C4(C)COCC4O)CC3)c(Cl)cc2cn1` (single isomer, unassigned) [Ex-4.47, N-(7-chloro-6-(1-(4-hydroxy-3-methyltetrahydrofuran-3-yl)piperidin-4-yl)isoquinolin-3-yl)-2-(2-fluoropropan-2-yl)cyclopropane-1-carboxamide], with 2 nM.
Then `CC(C)(F)C1CC1C(=O)Nc1cc2cc(C3CCN(C4(C)COCC4O)CC3)c(Cl)cc2cn1` (single isomer, unassigned) [Ex-4.48, N-(7-chloro-6-(1-(4-hydroxy-3-methyltetrahydrofuran-3-yl)piperidin-4-yl)isoquinolin-3-yl)-2-(2-fluoropropan-2-yl)cyclopropane-1-carboxamide], with 1.26 nM; and `CC1C(C(=O)Nc2cc3cc(C4CCN(C5(C)COCC5O)CC4)c(Cl)cc3cn2)C1c1ccccn1` (single isomer, unassigned) [Ex-4.51, N-(7-chloro-6-(1-(4-hydroxy-3-methyltetrahydrofuran-3-yl)piperidin-4-yl)isoquinolin-3-yl)-2-methyl-3-(pyridin-2-yl)cyclopropane-1-carboxamide], with 83.2 nM; and `CC1C(C(=O)Nc2cc3cc(C4CCN(C5(C)COCC5O)CC4)c(Cl)cc3cn2)C1c1ccccn1` (single isomer, unassigned) [Ex-4.52, N-(7-chloro-6-(1-(4-hydroxy-3-methyltetrahydrofuran-3-yl)piperidin-4-yl)isoquinolin-3-yl)-2-methyl-3-(pyridin-2-yl)cyclopropane-1-carboxamide], with 15.1 nM.
Next, `CC1C(C(=O)Nc2cc3cc(C4CCN(C5(C)COCC5O)CC4)c(Cl)cc3cn2)C1c1ccccn1` (single isomer, unassigned) [Ex-4.53, N-(7-chloro-6-(1-(4-hydroxy-3-methyltetrahydrofuran-3-yl)piperidin-4-yl)isoquinolin-3-yl)-2-methyl-3-(pyridin-2-yl)cyclopropane-1-carboxamide]: 3.98 nM; `CC1C(C(=O)Nc2cc3cc(C4CCN(C5(C)COCC5O)CC4)c(Cl)cc3cn2)C1c1ccccn1` (single isomer, unassigned) [Ex-4.54, N-(7-chloro-6-(1-(4-hydroxy-3-methyltetrahydrofuran-3-yl)piperidin-4-yl)isoquinolin-3-yl)-2-methyl-3-(pyridin-2-yl)cyclopropane-1-carboxamide]: 9.12 nM.
As for `CCC1C(C(=O)Nc2cc3cc(C4CCN(C5(C)COCC5O)CC4)c(Cl)cc3cn2)C1c1ccccn1` (single isomer, unassigned) [Ex-4.55, N-(7-chloro-6-(1-(4-hydroxy-3-methyltetrahydrofuran-3-yl)piperidin-4-yl)isoquinolin-3-yl)-2-ethyl-3-(pyridin-2-yl)cyclopropane-1-carboxamide], the IC50 was 30.9 nM.
Then `CCC1C(C(=O)Nc2cc3cc(C4CCN(C5(C)COCC5O)CC4)c(Cl)cc3cn2)C1c1ccccn1` (single isomer, unassigned) [Ex-4.56, N-(7-chloro-6-(1-(4-hydroxy-3-methyltetrahydrofuran-3-yl)piperidin-4-yl)isoquinolin-3-yl)-2-ethyl-3-(pyridin-2-yl)cyclopropane-1-carboxamide], with 18.2 nM.
Next, `Cc1ccc(C2CC2C(=O)Nc2cc3cc(C4CCN(C5(C)COCC5O)CC4)c(Cl)cc3cn2)s1` (single isomer, unassigned) [Ex-4.57, N-(7-chloro-6-(1-(4-hydroxy-3-methyltetrahydrofuran-3-yl)piperidin-4-yl)isoquinolin-3-yl)-2-(5-methylthiophen-2-yl)cyclopropane-1-carboxamide]: 41.7 nM; `Cc1ccc(C2CC2C(=O)Nc2cc3cc(C4CCN(C5(C)COCC5O)CC4)c(Cl)cc3cn2)s1` (single isomer, unassigned) [Ex-4.58, N-(7-chloro-6-(1-(4-hydroxy-3-methyltetrahydrofuran-3-yl)piperidin-4-yl)isoquinolin-3-yl)-2-(5-methylthiophen-2-yl)cyclopropane-1-carboxamide]: 1.51 nM; `CC1(N2CCC(c3cc4cc(NC(=O)C5CC5c5cccs5)ncc4cc3Cl)CC2)COCC1O` (single isomer, unassigned) [Ex-4.59, N-(7-chloro-6-(1-(4-hydroxy-3-methyltetrahydrofuran-3-yl)piperidin-4-yl)isoquinolin-3-yl)-2-(thiophen-2-yl)cyclopropane-1-carboxamide]: 129 nM.
Then `CC1(N2CCC(c3cc4cc(NC(=O)C5CC5c5cccs5)ncc4cc3Cl)CC2)COCC1O` (single isomer, unassigned) [Ex-4.60, N-(7-chloro-6-(1-(4-hydroxy-3-methyltetrahydrofuran-3-yl)piperidin-4-yl)isoquinolin-3-yl)-2-(thiophen-2-yl)cyclopropane-1-carboxamide], with 0.0813 nM; and `CC(C)Cn1nccc1C1CC1C(=O)Nc1cc2cc(C3CCN(C4(C)COCC4O)CC3)c(Cl)cc2cn1` (single isomer, unassigned) [Ex-4.61, N-(7-chloro-6-(1-(4-hydroxy-3-methyltetrahydrofuran-3-yl)piperidin-4-yl)isoquinolin-3-yl)-2-(1-isobutyl-1H-pyrazol-5-yl)cyclopropane-1-carboxamide], with 72.4 nM.
